Source: patent US20150203517A1, “Prodrugs of Compounds that Enhance Antifungal Activity and Compositions of Said Prodrugs” (priority 2014, published 2015)
Values after ≈ are worked out from the molar mass of the structure shown. Structures can show the parent of a compound that is named as a salt. Where two headings read alike, the source gives them in different places.

Test: Saline solubility at 1.00 mg/mL and 0.50 mg/mL (with pH by indicator paper)
Format: physicochemical
Details: for pH at 1.00 mg/mL of MGCD290 in saline: final concentration of hydroxamate 1 1.00 mg/mL, pH indicator paper; for solubility at 1 h: saline or isotonic, thermodynamic from solid, centrifuged, soluble = no precipitate formed
Description: Assays were performed to determine the saline solubility at 1.00 and 0.50 mg/ml and the stability of certain of the prodrug compounds of Examples 1-111. The following procedures were used.
Step 1. Sample preparation. An amount of the compound sample was precisely weighed to correspond to around 5 mg of the hydroxamate of compound 1, taking into account the mass of the leaving group and the salt factor if applicable. The sample was placed in a 16×125 mm glass screw cap tube. Saline was added so that the final concentration of hydroxamate 1 was 1.00 mg/mL. The pH was measured with pH indicator paper. The tube was shaken for 1 hour on a Vortex apparatus then centrifuged at 3000 rpm (1800 rcf) for 5 minutes. If the compound example was soluble (no precipitate formed) the procedure continued to step 2. If a precipitate formed then the sample was diluted with saline so that the final concentration of the hydroxamate of compound 1 was 0.50 mg/mL, and the shaking and centrifuging steps were repeated. If the compound example was soluble (no precipitate formed) the procedure continued to step 2. If a precipitate formed the sample was discarded. Step 2. HPLC analysis. A 500 μL aliquot of a sample solution prepared according to Step 1 was taken up into a 1.5 mL injection vial to which was added 500 μL of saline. The vial was shaken on a Vortex apparatus, injected into the HPLC instrument (UV detection, zero time point) and the retention time and purity of the sample compound were determined. The injection was repeated after 6 hours and 24 hours, and a comparison was made of the retention time, peak areas and level of degradation (if any) using the GDADI50 method.

[1] = 0.50 mg/mL as hydroxamate 1, shaken 1 hour, read-out: Soluble at 0.5 mg/mL of MGCD290 (Y/N)
[2] = 1.00 mg/mL as hydroxamate 1, shaken 1 hour, read-out: Soluble at 1.00 mg/mL of MGCD290 (Y/N)

Structure (SMILES) | pH at 1.00 mg/mL of MGCD290 in saline | solubility at 1 h [1] | solubility at 1 h [2]
COCCOCCOCCOCCOCC(=O)N[C@@H](C)CC(=O)ONC(=O)Cc1ccc(CCCCc2ccccc2)cc1 [Compound 88] | 4.5-5 | < 500 µg/mL | < 1000 µg/mL
COCCOCCOCC(=O)NCCCC[C@H](NC(=O)COCCOCCOC)C(=O)NC[C@H](C)C(=O)ONC(=O)Cc1ccc(CCCCc2ccccc2)cc1 [Compound 91] | 4.5-5 | – | > 1000 µg/mL
COCCOCCOCCNC(=O)CN(CC(=O)NCCOCCOCCOC)C(=O)CCC(=O)ONC(=O)Cc1ccc(CCCCc2ccccc2)cc1 [Compound 95, 4-oxo-N,N-bis (12-oxo-2,5,8-trioxa-11-azatridecan-13-yl)-4-(2-(4-(4-phenylbutyl)phenyl)acetamidooxy)butanamide] | 4.5-5 | 500 to 1000 µg/mL (≈ 634 to 1270 µM) | < 1000 µg/mL
COCCOCCOCCOCC(=O)NCCCC[C@H](NC(=O)COCCOCCOCCOC)C(=O)NCCCC(=O)ONC(=O)Cc1ccc(CCCCc2ccccc2)cc1 [Compound 101] | 4.5-5 | – | > 1000 µg/mL
COCCOCCOCCOCCOCC(=O)NCCCC[C@H](NC(=O)COCCOCCOCCOCCOC)C(=O)NCCCC(=O)ONC(=O)Cc1ccc(CCCCc2ccccc2)cc1 [Compound 102] | 4.5-5 | – | > 1000 µg/mL
COCCOCCOCCOCCOCCOCC(=O)NCCCC[C@H](NC(=O)COCCOCCOCCOCCOCCOC)C(=O)NCCCC(=O)ONC(=O)Cc1ccc(CCCCc2ccccc2)cc1 [Compound 103] | 4.5-5 | – | > 1000 µg/mL
NCCCC[C@H](N)C(=O)N1CCC[C@H]1C(=O)ONC(=O)Cc1ccc(CCCCc2ccccc2)cc1 [Compound 106, N-((S)-1-((S)-2,6-Diaminohexanoyl)pyrrolidine-2-carbonyloxy)-2-(4-(4-phenylbutyl)phenyl) acetamide dihydrochloride] | 3.5-4 | < 500 µg/mL | < 1000 µg/mL
COCCOCCOCC(=O)NCCCC[C@H](NC(=O)COCCOCCOC)C(=O)N1CCC[C@H]1C(=O)ONC(=O)Cc1ccc(CCCCc2ccccc2)cc1 [Compound 107, N,N′-((S)-6-Oxo-6-((S)-2-((2-(4-(4-phenylbutyl)phenyl)acetamidooxy)carbonyl)pyrrolidin-1-yl)hexane-1,5-diyl)bis(2-(2-(2-methoxyethoxyl)ethoxy)acetamide)] | 4.5-5 | – | > 1000 µg/mL
COCCOCC(=O)NCCCC[C@H](NC(=O)COCCOC)C(=O)N1CCC[C@H]1C(=O)ONC(=O)Cc1ccc(CCCCc2ccccc2)cc1 [Compound 108] | 4.5-5 | < 500 µg/mL | < 1000 µg/mL
COCCOCCOCC(=O)N1CCC(CCC(=O)ONC(=O)Cc2ccc(CCCCc3ccccc3)cc2)CC1 [Compound 112] | 5.5-6 | < 500 µg/mL | < 1000 µg/mL
COCCOCCOCCOCCOCC(=O)N1CCC(CCC(=O)ONC(=O)Cc2ccc(CCCCc3ccccc3)cc2)CC1 [Compound 113] | 5.5-6 | < 500 µg/mL | < 1000 µg/mL
Cl.O=C(Cc1ccc(CCCCc2ccccc2)cc1)NOC(=O)CC1CCNCC1 [Compound 114] | 4-4.5 | < 500 µg/mL | < 1000 µg/mL
COCCOCCOCC(=O)N1CCC(CC(=O)ONC(=O)Cc2ccc(CCCCc3ccccc3)cc2)CC1 [Compound 115] | 4.5-5 | < 500 µg/mL | < 1000 µg/mL
COCCOCCOCCOCC(=O)N1CCC(CC(=O)ONC(=O)Cc2ccc(CCCCc3ccccc3)cc2)CC1 [Compound 116] | 4.5-5 | < 500 µg/mL | < 1000 µg/mL
COCCOCCOCCOCCOCCOCC(=O)N1CCC(CC(=O)ONC(=O)Cc2ccc(CCCCc3ccccc3)cc2)CC1 [Compound 117] | 4.5-5 | – | > 1000 µg/mL
Cl.O=C(Cc1ccc(CCCCc2ccccc2)cc1)NOC(=O)C1CCNCC1 [Compound 118, 2-(4-(4-phenylbutyl)phenyl)-N-(piperidine-4-carbonyloxy)acetamide hydrochloride] | 4-4.5 | < 500 µg/mL | < 1000 µg/mL

Structure (SMILES) | pH at 1.00 mg/mL of MGCD290 in saline | solubility at 1 h [1] | solubility at 1 h [2]
COCCOCCOCC(=O)N1CCC(C(=O)ONC(=O)Cc2ccc(CCCCc3ccccc3)cc2)CC1 [Compound 119] | 4.5-5 | < 500 µg/mL | < 1000 µg/mL
Cl.O=C(Cc1ccc(CCCCc2ccccc2)cc1)NOC(=O)CCCC1CCNCC1 [Compound 121, 2-(4-(4-phenylbutyl)phenyl)-N-(4-(piperidin-4-yl)butanoyloxy) acetamide hydrochloride] | 5.-5.5 | < 500 µg/mL | < 1000 µg/mL
Cl.O=C(Cc1ccc(CCCCc2ccccc2)cc1)NOC(=O)CCC(=O)N1CCNCC1 [Compound 123, N-(4-oxo-4-(piperazin-1-yl)butanoyloxy)-2-(4-(4-phenylbutyl)phenyl) acetamide hydrochloride] | 4.5-5 | – | > 1000 µg/mL
COCCOCCOCC(=O)N1CCN(C(=O)CCC(=O)ONC(=O)Cc2ccc(CCCCc3ccccc3)cc2)CC1 [Compound 124] | 5-5.5 | – | > 1000 µg/mL
Cl.O=C(Cc1ccc(CCCCc2ccccc2)cc1)NOC(=O)COC1CCNCC1 [Compound 125, 2-(4-(4-phenylbutyl)phenyl)-N-(2-(piperidin-4-yloxy)acetoxy)acetamide hydrochloride] | 4.5-5 | < 500 µg/mL | < 1000 µg/mL
COCCOCCOCCOCCOCCOCC(=O)N1CCC(OCC(=O)ONC(=O)Cc2ccc(CCCCc3ccccc3)cc2)CC1 [Compound 127] | 4.5-5 | < 500 µg/mL | < 1000 µg/mL
Cl.O=C(Cc1ccc(CCCCc2ccccc2)cc1)NOC(=O)CCN1CCNCC1=O [Compound 128, N-(3-(2-oxopiperazin-1-yl)propanoyloxy)-2-(4-(4-phenylbutyl)phenyl) acetamide hydrochloride] | 4.5-5 | – | > 1000 µg/mL
COCCOCCOCC(=O)N1CC(CCCC(=O)ONC(=O)Cc2ccc(CCCCc3ccccc3)cc2)C1 [Compound 128B] | 5.5-6 | < 500 µg/mL | < 1000 µg/mL
NCCNCC(=O)NCCCC(=O)ONC(=O)Cc1ccc(CCCCc2ccccc2)cc1 [Compound 133, 2-(2-Aminoethylamino)-N-(4-oxo-4-(2-(4-(4-phenylbutyl)phenyl)acetamidooxy)butyl) acetamide dihydrochloride] | 4.5-5 | < 500 µg/mL | < 1000 µg/mL
COCCOCCOCC(=O)NCCN(CC(=O)NCCCC(=O)ONC(=O)Cc1ccc(CCCCc2ccccc2)cc1)C(=O)COCCOCCOC [Compound 134, 2-(2-(2-Methoxyethoxyl)ethoxy)-N-(2-oxo-2-(4-oxo-4-(2-(4-(4-phenylbutyl)phenyl)acetamidooxy)butylamino)ethyl)-N-(10-oxo-2,5,8-trioxa-11-azatridecan-13-yl)acetamide] | 5.5-6 | – | > 1000 µg/mL
COCCOCCOCC(=O)NCCN(CC(=O)NCCC(=O)ONC(=O)Cc1ccc(CCCCc2ccccc2)cc1)C(=O)COCCOCCOC [Compound 136] | 5.5-6 | < 500 µg/mL | < 1000 µg/mL
COCCOCCOCC(=O)NCCCC[C@H](N)C(=O)NCCC(=O)ONC(=O)Cc1ccc(CCCCc2ccccc2)cc1.Cl [Compound 142, (S)-2-Amino-6-(2-(2-(2-methoxyethoxy)ethoxy)acetamido)-N-(3-oxo-3-(2-(4-(4-phenylbutyl)phenyl)acetamidooxy)propyl) hexanamide hydrochloride] | 5-5.5 | – | > 1000 µg/mL
COCCOCCOCC(=O)NC[C@H](NC(=O)COCCOCCOC)C(=O)NCCC(=O)ONC(=O)Cc1ccc(CCCCc2ccccc2)cc1 [Compound 143] | 4.5-5 | < 500 µg/mL | < 1000 µg/mL
COCCC(=O)NC[C@H](NC(=O)CCOC)C(=O)NCCC(=O)ONC(=O)Cc1ccc(CCCCc2ccccc2)cc1 [Compound 144] | 4.5-5 | < 500 µg/mL | < 1000 µg/mL
COCCOCC(=O)NC[C@H](NC(=O)COCCOC)C(=O)NCCC(=O)ONC(=O)Cc1ccc(CCCCc2ccccc2)cc1 [Compound 145] | 4.5-5 | < 500 µg/mL | < 1000 µg/mL
CC(=O)OCC(=O)NC[C@H](NC(=O)COC(C)=O)C(=O)NCCC(=O)ONC(=O)Cc1ccc(CCCCc2ccccc2)cc1 [Compound 146] | 4.5-5 | < 500 µg/mL | < 1000 µg/mL
